According to patent publication US20100298141A1, “SUBSTITUTED PYRIDINE N-OXIDE HERBICIDES” (E. I. DU PONT DE NEMOURS AND COMPANY, priority 2007, published 2010):

Tests used:
giant foxtail = test: Test A pre-/postemergence greenhouse test; assay type: in vivo, Setaria faberi; settings: for Plant response rating, Foxtail, Giant: 0 to 100 scale where 0 is no effect and 100 is complete control; for Foxtail, Giant plant response rating: 0 to 100 scale
In short: (§1)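 Sowing in loam/sand; same-day pre (directed soil spray) and post (foliar, 1–2 leaf, 2–10 cm) treatment with surfactant-containing non-phytotoxic solvent formulation; ~10 days in greenhouse; eye-scored injury against untreated plants.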

umbrella sedge = test: Test C flooded paddy test; assay type: in vivo, Cyperus difformis; settings: Flood
In short: (§2)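 Flooded 3 cm over soil; compound into paddy water; depth kept constant. Greenhouse 13–15 d.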

redroot pigweed = test: Test A pre-/postemergence greenhouse test; assay type: in vivo, Amaranthus retroflexus; settings: for Plant response rating, Pigweed: 0 to 100 scale where 0 is no effect and 100 is complete control; for Pigweed plant response rating: 0 to 100 scale
In short: as §1

velvetleaf = test: Test A pre-/postemergence greenhouse test; assay type: in vivo, Abutilon theophrasti; settings: for Plant response rating, Velvetleaf: 0 to 100 scale where 0 is no effect and 100 is complete control; for Velvetleaf plant response rating: 0 to 100 scale
In short: as §1

crabgrass = test: Test A pre-/postemergence greenhouse test; assay type: in vivo, Digitaria sanguinalis; settings: for Plant response rating, Crabgrass, Large: 0 to 100 scale where 0 is no effect and 100 is complete control; for Crabgrass, Large plant response rating: 0 to 100 scale
In short: as §1

duck salad = test: Test C flooded paddy test; assay type: in vivo, Heteranthera limosa; settings: Flood
In short: as §2

morningglory = test: Test A pre-/postemergence greenhouse test; assay type: in vivo, Ipomoea spp.; settings: for Plant response rating, Morningglory: 0 to 100 scale where 0 is no effect and 100 is complete control; for Morningglory plant response rating: 0 to 100 scale
In short: as §1

rice = test: Test C flooded paddy test; assay type: in vivo, Oryza sativa; settings: Flood
In short: as §2

wheat = test: Test A pre-/postemergence greenhouse test; assay type: in vivo, Triticum aestivum; settings: for Wheat plant response rating: 0 to 100 scale; for Plant response rating, Wheat: 0 to 100 scale where 0 is no effect and 100 is complete control
In short: as §1

barnyardgrass [1] = test: Test C flooded paddy test; assay type: in vivo, Echinochloa crus-galli; settings: Flood
In short: as §2

corn = test: Test A pre-/postemergence greenhouse test; assay type: in vivo, Zea mays; settings: for Corn plant response rating: 0 to 100 scale; for Plant response rating, Corn: 0 to 100 scale where 0 is no effect and 100 is complete control
In short: as §1

barnyardgrass [2] = test: Test A pre-/postemergence greenhouse test; assay type: in vivo, Echinochloa crus-galli; settings: for Plant response rating, Barnyardgrass: 0 to 100 scale where 0 is no effect and 100 is complete control; for Barnyardgrass plant response rating: 0 to 100 scale
In short: as §1

[3] = Postemergence, 500 g ai/ha, 0 is no effect, 100 is complete control
[4] = Preemergence, 125 g ai/ha, 0 no effect, 100 complete control
[5] = 62 g ai/ha, scale 0 to 100 (0 no effect, 100 complete control)
[6] = 250 g ai/ha, scale 0 to 100, 0 no effect, 100 complete control, 13 to 15 days
[7] = Preemergence, 500 g ai/ha, 0 no effect, 100 complete control

CC(Oc1c(CS(=O)(=O)c2ccc(Cl)c[n+]2[O-])c(C(F)(F)F)nn1C)C(F)(F)F (centres unmarked) [Compound 95]
Plant response rating, Foxtail, Giant (giant foxtail; Postemergence, 125 g ai/ha): 20
Foxtail, Giant plant response rating (giant foxtail; [3]): 80
Foxtail, Giant plant response rating (giant foxtail; [4]): 70
Plant response rating, Foxtail, Giant (giant foxtail; Preemergence, 500 g ai/ha): 90
Plant response rating, Sedge, Umbrella (umbrella sedge; [5]): 0
Plant response rating, Sedge, Umbrella (umbrella sedge; [6]): 35
Plant response rating, Pigweed (redroot pigweed; Postemergence, 125 g ai/ha): 0
Pigweed plant response rating (redroot pigweed; [3]): 30
Pigweed plant response rating (redroot pigweed; [4]): 0
Plant response rating, Pigweed (redroot pigweed; Preemergence, 500 g ai/ha): 10
Plant response rating, Velvetleaf (velvetleaf; Postemergence, 125 g ai/ha): 40
Velvetleaf plant response rating (velvetleaf; [3]): 40
Velvetleaf plant response rating (velvetleaf; [4]): 0
Velvetleaf plant response rating (velvetleaf; [7]): 0
Plant response rating, Crabgrass, Large (crabgrass; Postemergence, 125 g ai/ha): 20
Crabgrass, Large plant response rating (crabgrass; [3]): 80
Crabgrass, Large plant response rating (crabgrass; [4]): 20
Plant response rating, Crabgrass, Large (crabgrass; Preemergence, 500 g ai/ha): 80
Plant response rating, Ducksalad (duck salad; [5]): 0
Plant response rating, Ducksalad (duck salad; [6]): 80
Plant response rating, Morningglory (morningglory; Postemergence, 125 g ai/ha): 0
Morningglory plant response rating (morningglory; [3]): 20
Morningglory plant response rating (morningglory; [4]): 0
Plant response rating, Morningglory (morningglory; Preemergence, 500 g ai/ha): 20
Plant response rating, Rice (rice; [5]): 0
Plant response rating, Rice (rice; [6]): 20
Wheat plant response rating (wheat; [3]): 30
Wheat plant response rating (wheat; [4]): 0
Wheat plant response rating (wheat; [7]): 30
Plant response rating, Barnyardgrass (barnyardgrass [1]; [5]): 0
Plant response rating, Barnyardgrass (barnyardgrass [1]; [6]): 20
Corn plant response rating (corn; [3]): 0
Corn plant response rating (corn; [4]): 0
Plant response rating, Corn (corn; Preemergence, 500 g ai/ha): 0
Plant response rating, Barnyardgrass (barnyardgrass [2]; Postemergence, 125 g ai/ha): 50
Barnyardgrass plant response rating (barnyardgrass [2]; [3]): 70
Barnyardgrass plant response rating (barnyardgrass [2]; [4]): 10
Plant response rating, Barnyardgrass (barnyardgrass [2]; Preemergence, 500 g ai/ha): 90

Cn1nc(C(F)(F)F)c(CS(=O)(=O)c2ccc(Cl)c[n+]2[O-])c1OCC(F)(F)C(F)(F)F [Compound 97]
Plant response rating, Foxtail, Giant (giant foxtail; Postemergence, 125 g ai/ha): 30
Foxtail, Giant plant response rating (giant foxtail; [3]): 70
Foxtail, Giant plant response rating (giant foxtail; [4]): 70
Plant response rating, Foxtail, Giant (giant foxtail; Preemergence, 500 g ai/ha): 80
Plant response rating, Sedge, Umbrella (umbrella sedge; [5]): 0
Plant response rating, Sedge, Umbrella (umbrella sedge; [6]): 0
Plant response rating, Pigweed (redroot pigweed; Postemergence, 125 g ai/ha): 0
Pigweed plant response rating (redroot pigweed; [3]): 20
Pigweed plant response rating (redroot pigweed; [4]): 30
Plant response rating, Pigweed (redroot pigweed; Preemergence, 500 g ai/ha): 30
Plant response rating, Velvetleaf (velvetleaf; Postemergence, 125 g ai/ha): 0
Velvetleaf plant response rating (velvetleaf; [3]): 30
Velvetleaf plant response rating (velvetleaf; [4]): 0
Velvetleaf plant response rating (velvetleaf; [7]): 0
Plant response rating, Crabgrass, Large (crabgrass; Postemergence, 125 g ai/ha): 20
Crabgrass, Large plant response rating (crabgrass; [3]): 60
Crabgrass, Large plant response rating (crabgrass; [4]): 20
Plant response rating, Crabgrass, Large (crabgrass; Preemergence, 500 g ai/ha): 70
Plant response rating, Ducksalad (duck salad; [5]): 0
Plant response rating, Ducksalad (duck salad; [6]): 40
Plant response rating, Morningglory (morningglory; Postemergence, 125 g ai/ha): 0
Morningglory plant response rating (morningglory; [3]): 0
Morningglory plant response rating (morningglory; [4]): 0
Plant response rating, Morningglory (morningglory; Preemergence, 500 g ai/ha): 20
Plant response rating, Rice (rice; [5]): 0
Plant response rating, Rice (rice; [6]): 30
Plant response rating, Wheat (wheat; Postemergence, 125 g ai/ha): 0
Wheat plant response rating (wheat; [3]): 30
Wheat plant response rating (wheat; [4]): 0
Wheat plant response rating (wheat; [7]): 0
Plant response rating, Barnyardgrass (barnyardgrass [1]; [5]): 0
Plant response rating, Barnyardgrass (barnyardgrass [1]; [6]): 0
Plant response rating, Corn (corn; Postemergence, 125 g ai/ha): 0
Corn plant response rating (corn; [3]): 0
Corn plant response rating (corn; [4]): 0
Plant response rating, Corn (corn; Preemergence, 500 g ai/ha): 0
Plant response rating, Barnyardgrass (barnyardgrass [2]; Postemergence, 125 g ai/ha): 20
Barnyardgrass plant response rating (barnyardgrass [2]; [3]): 70
Barnyardgrass plant response rating (barnyardgrass [2]; [4]): 10
Plant response rating, Barnyardgrass (barnyardgrass [2]; Preemergence, 500 g ai/ha): 90

Cc1cc[n+]([O-])c(S(=O)(=O)Cc2c(C(F)(F)F)nn(C)c2OCC(F)(F)C(F)(F)F)c1 [Compound 98]
Plant response rating, Foxtail, Giant (giant foxtail; Postemergence, 125 g ai/ha): 20
Foxtail, Giant plant response rating (giant foxtail; [3]): 80
Foxtail, Giant plant response rating (giant foxtail; [4]): 50
Plant response rating, Foxtail, Giant (giant foxtail; Preemergence, 500 g ai/ha): 100
Plant response rating, Sedge, Umbrella (umbrella sedge; [5]): 0
Plant response rating, Sedge, Umbrella (umbrella sedge; [6]): 0
Plant response rating, Pigweed (redroot pigweed; Postemergence, 125 g ai/ha): 0
Pigweed plant response rating (redroot pigweed; [3]): 20
Pigweed plant response rating (redroot pigweed; [4]): 20
Plant response rating, Pigweed (redroot pigweed; Preemergence, 500 g ai/ha): 60
Plant response rating, Velvetleaf (velvetleaf; Postemergence, 125 g ai/ha): 0
Velvetleaf plant response rating (velvetleaf; [3]): 40
Velvetleaf plant response rating (velvetleaf; [4]): 0
Velvetleaf plant response rating (velvetleaf; [7]): 50
Plant response rating, Crabgrass, Large (crabgrass; Postemergence, 125 g ai/ha): 10
Crabgrass, Large plant response rating (crabgrass; [3]): 70
Crabgrass, Large plant response rating (crabgrass; [4]): 30
Plant response rating, Crabgrass, Large (crabgrass; Preemergence, 500 g ai/ha): 90
Plant response rating, Ducksalad (duck salad; [5]): 0
Plant response rating, Ducksalad (duck salad; [6]): 0
Plant response rating, Morningglory (morningglory; Postemergence, 125 g ai/ha): 10
Morningglory plant response rating (morningglory; [3]): 80
Morningglory plant response rating (morningglory; [4]): 0
Plant response rating, Morningglory (morningglory; Preemergence, 500 g ai/ha): 50
Plant response rating, Rice (rice; [5]): 0
Plant response rating, Rice (rice; [6]): 0
Plant response rating, Wheat (wheat; Postemergence, 125 g ai/ha): 0
Wheat plant response rating (wheat; [3]): 0
Wheat plant response rating (wheat; [4]): 0
Wheat plant response rating (wheat; [7]): 20
Plant response rating, Barnyardgrass (barnyardgrass [1]; [5]): 0
Plant response rating, Barnyardgrass (barnyardgrass [1]; [6]): 0
Plant response rating, Corn (corn; Postemergence, 125 g ai/ha): 30
Corn plant response rating (corn; [3]): 30
Corn plant response rating (corn; [4]): 0
Plant response rating, Corn (corn; Preemergence, 500 g ai/ha): 0
Plant response rating, Barnyardgrass (barnyardgrass [2]; Postemergence, 125 g ai/ha): 0
Barnyardgrass plant response rating (barnyardgrass [2]; [3]): 70
Barnyardgrass plant response rating (barnyardgrass [2]; [4]): 60
Plant response rating, Barnyardgrass (barnyardgrass [2]; Preemergence, 500 g ai/ha): 100

Cn1nc(C(F)(F)C(F)(F)F)c(CS(=O)(=O)c2ccc(Cl)c[n+]2[O-])c1OCC(F)(F)F [Compound 100]
Plant response rating, Foxtail, Giant (giant foxtail; Postemergence, 125 g ai/ha): 50
Foxtail, Giant plant response rating (giant foxtail; [3]): 90
Foxtail, Giant plant response rating (giant foxtail; [4]): 60
Foxtail, Giant plant response rating (giant foxtail; [7]): 90
Plant response rating, Sedge, Umbrella (umbrella sedge; [5]): 0
Plant response rating, Sedge, Umbrella (umbrella sedge; [6]): 0
Plant response rating, Pigweed (redroot pigweed; Postemergence, 125 g ai/ha): 0
Pigweed plant response rating (redroot pigweed; [3]): 60
Pigweed plant response rating (redroot pigweed; [4]): 60
Pigweed plant response rating (redroot pigweed; [7]): 80
Plant response rating, Velvetleaf (velvetleaf; Postemergence, 125 g ai/ha): 0
Velvetleaf plant response rating (velvetleaf; [3]): 20
Velvetleaf plant response rating (velvetleaf; [4]): 0
Velvetleaf plant response rating (velvetleaf; [7]): 50
Plant response rating, Crabgrass, Large (crabgrass; Postemergence, 125 g ai/ha): 40
Crabgrass, Large plant response rating (crabgrass; [3]): 80
Crabgrass, Large plant response rating (crabgrass; [4]): 40
Crabgrass, Large plant response rating (crabgrass; [7]): 80
Plant response rating, Ducksalad (duck salad; [5]): 0
Plant response rating, Ducksalad (duck salad; [6]): 30
Plant response rating, Morningglory (morningglory; Postemergence, 125 g ai/ha): 0
Morningglory plant response rating (morningglory; [3]): 20
Morningglory plant response rating (morningglory; [4]): 0
Morningglory plant response rating (morningglory; [7]): 10
Plant response rating, Rice (rice; [5]): 0
Plant response rating, Rice (rice; [6]): 0
Plant response rating, Wheat (wheat; Postemergence, 125 g ai/ha): 0
Wheat plant response rating (wheat; [3]): 0
Wheat plant response rating (wheat; [4]): 0
Wheat plant response rating (wheat; [7]): 10
Plant response rating, Barnyardgrass (barnyardgrass [1]; [5]): 0
Plant response rating, Barnyardgrass (barnyardgrass [1]; [6]): 0
Plant response rating, Corn (corn; Postemergence, 125 g ai/ha): 0
Corn plant response rating (corn; [3]): 0
Corn plant response rating (corn; [4]): 0
Corn plant response rating (corn; [7]): 0
Plant response rating, Barnyardgrass (barnyardgrass [2]; Postemergence, 125 g ai/ha): 40
Barnyardgrass plant response rating (barnyardgrass [2]; [3]): 60
Barnyardgrass plant response rating (barnyardgrass [2]; [4]): 0
Barnyardgrass plant response rating (barnyardgrass [2]; [7]): 90
